Experimental data taken from patent publication US20190358181A1, “METHODS FOR AUTISM SPECTRUM DISORDER PHARMACOTHERAPY” (priority 2017, published 2019).

Tests used:
Format in all cases: in vivo, human
[1] = tested on: males with ASD; experiment: Clinical Global Impression (CGI) 24-question instrument, SAT-1 trial; conditions: for Difference from baseline (mean ± sd) / d (Cohen's d): 45 days after treatment
Description: (§1) Two observational examinations were performed by a clinician at 3 time points: baseline (56±8 days; mean±SEM; before the infusion), 2-days post-infusion, and 6-weeks post-infusion. The two examiner-based metrics were the Autism Diagnostic Observation Schedule, 2nd edition (ADOS-2) with video and audio files recorded on 3 cameras, and the Expressive One Word Picture Vocabulary Testing (EOWPVT). Both of these observational metrics were administered by a trained and certified examiner using approved test materials. Three standardized questionnaires were completed by parents at 3 time points: baseline, 7-days post-infusion, and 6-weeks post-infusion. The three standardized questionnaires completed by parents were the 58-question Aberrant Behavior Checklist (ABC), the 75-item Autism Treatment Evaluation Checklist (ATEC), and the 33-item repetitive behavior questionnaire (RBQ). Parents were asked to complete these three instruments with reference to how their child behaved in the previous 7 days. At the end of the six weeks, we included a 24-question Clinical Global Impression (CGI) questionnaire (FIG. 16). In addition, parents were asked to list the 3 top behaviors or symptoms that they observed to be most changed over the previous 6-weeks. To minimize the misinterpretation of natural day-to-day variations in symptoms, parents were asked to mark a symptom as changed in the 6-week CGI only if it had lasted for at least 1 week.
We developed a 24-question Clinical Global Impression (CGI) instrument designed to assess the core symptoms of autism spectrum disorders and some of the most common comorbid features (FIG. 16). The CGI instrument scoring system was the traditional 7-point, CGI-Improvement scale. See, for e.g. Busner and Targum. Psychiatry. 2007(4):28-37. In this scale, the historian gives a score of 0 if the symptom “was never a problem”, a 1 for “very much improved”, a 4 for “no change”, and a 7 for “very much worse”. In addition to the 24 structured questions, we asked the parents to write in the top 3 symptoms or behaviors that were most changed over the 6 weeks since the suramin infusion. This hybrid design of structured and open-ended responses permitted us to capture a large number of clinical outcomes associated with single dose suramin treatment.
For the test dose, 50 mg of suramin hexasodium (Bayer Pharmaceuticals, Inc.) in 5 mL of saline (experimental arm, 5 patients), or 5 mL of saline only (control arm, 5 patients) were given by slow intravenous (IV) push over 3 minutes, followed by a 10 mL flush of saline. One hour after the test dose, vital signs were repeated and a single infusion of either suramin (20 mg/kg, minus the 50 mg test dose, in 50 mL, up to a maximum of 1 gram) or saline (50 mL IV) was given over 30 minutes, followed by a 10 mL flush of saline.
Behavioral and neurological effects of treatment were assessed primarily by the examiner-based ADOS-2 protocol scores and standardized vocabulary testing (Expressive One Word Picture Vocabulary Test, EOWPVT), with secondary evaluation via parent-based assessments (Aberrant Behavior Checklist (ABC) scores, Autism Treatment Evaluation Checklist (ATEC) scores, Clinical Global Impression of Improvement (CGI) scores, and Repetitive Behavior Questionnaire (RBQ) scores). See General Methods for information related to behavioral test administration. Prior to the study, diagnosis of each of the enrolled participants was confirmed by ADOS-2 comparison scores of ≥7, and non-verbal IQ was tested by Leiter-3 examination. Examiner-based outcomes (ADOS and EOWPVT) were assessed at 2-days and 6-weeks after the infusion. Parent-based outcomes (ABC, ATEC, CGI, and RBQ) were assessed at 7-days and 6-weeks after the infusion. To minimize the effects of natural behavioral variability, the parents were instructed to mark a behavior as changed only if it was persistently changed for at least 1 week. […]

[2] = tested on: males with ASD; experiment: Repetitive Behavior Questionnaire (RBQ), SAT-1 trial
Description: as §1, with “At the end of the six weeks, we included a 24-question Clinical Global Impression (CGI) questionnaire (FIG. 16). In addition, parents were asked to list the 3 top behaviors or symptoms that they observed to be most changed over the previous 6-weeks. To minimize the misinterpretation of natural day-to-day variations in symptoms, parents were asked to mark a symptom as changed in the 6-week CGI only if it had lasted for at least 1 week.” left out
(§2) Behavioral and neurological effects of treatment were assessed primarily by the examiner-based ADOS-2 protocol scores and standardized vocabulary testing (Expressive One Word Picture Vocabulary Test, EOWPVT), with secondary evaluation via parent-based assessments (Aberrant Behavior Checklist (ABC) scores, Autism Treatment Evaluation Checklist (ATEC) scores, Clinical Global Impression of Improvement (CGI) scores, and Repetitive Behavior Questionnaire (RBQ) scores). […] Examiner-based outcomes (ADOS and EOWPVT) were assessed at 2-days and 6-weeks after the infusion. Parent-based outcomes (ABC, ATEC, CGI, and RBQ) were assessed at 7-days and 6-weeks after the infusion. […]
(§3) Each child was used as their own control to examine before and after treatment effects from Example 1 in a paired t-test design for the analysis of the ADOS, EOWPVT, ABC, ATEC, RBQ (FIGS. 4-11 show individual analyses), and blood and urine safety data (FIGS. 2 and 3 show individual analyses). […] Categorical data, such as the presence or absence of adverse events or historical symptoms was analyzed by Fisher's exact test. […]

[3] = tested on: males with ASD; experiment: Expressive One Word Picture Vocabulary Test (EOWPVT), SAT-1 trial
Description: as §1, with “At the end of the six weeks, we included a 24-question Clinical Global Impression (CGI) questionnaire (FIG. 16). In addition, parents were asked to list the 3 top behaviors or symptoms that they observed to be most changed over the previous 6-weeks. To minimize the misinterpretation of natural day-to-day variations in symptoms, parents were asked to mark a symptom as changed in the 6-week CGI only if it had lasted for at least 1 week.” left out
as §2, §3

[4] = RBQ Total, 45 days after treatment
[5] = EOWPVT Vocabulary, 45 days after treatment

For `Cc1ccc(C(=O)Nc2ccc(S(=O)(=O)O)c3cc(S(=O)(=O)O)cc(S(=O)(=O)O)c23)cc1NC(=O)c1cccc(NC(=O)Nc2cccc(C(=O)Nc3cc(C(=O)Nc4ccc(S(=O)(=O)O)c5cc(S(=O)(=O)O)cc(S(=O)(=O)O)c45)ccc3C)c2)c1` [Suramin, suramin], the “symptoms covered in the CGI that were significant” value ([1]; 6-weeks, 24 symptoms (FIG. 10C)) was “Four of 24”, the “Difference from baseline (mean ± sd)” value ([1]; CGI E. Language (expressive language)) was −2.0 ± 1.04 and the “d (Cohen's d)” value ([1]; CGI E. Language) was 1.9. The “Difference from baseline (mean ± sd)” value ([1]; CGI Overall ASD symptoms) was −1.8 ± 1.04, the “d (Cohen's d)” value ([1]; CGI Overall ASD symptoms) was 1.7 and the “Difference from baseline (mean ± sd)” value ([1]; CGI Social Inter. (social interaction)) was −2.0 ± 1.04. For the same compound, the “d (Cohen's d)” value ([1]; CGI Social Inter.) was 1.9, the “Repetitive Behavior Questionnaire (RBQ) scores” value ([2]; 6-weeks) was “did not capture a change” and the “Difference from baseline (mean ± sd)” value [2, 4] was −3.2 ± 5.8. The “d (Cohen's d)” value [2, 4] was 0.55, the “Difference from baseline (mean ± sd)” value [3, 5] was −4.2 ± 8.3 and the “d (Cohen's d)” value [3, 5] was −0.51. For the same compound, the EOWPVT scores ([3]; after single 20 mg/kg IV dose) was “did not change”.
